# Where two headings read alike, the source gives them in different places.
# How the values were obtained:
# tomato = assay: Germination and seedling growth of tomato on absorbent cotton with test solution; type: in vivo, tomato (Lycopersicon esculentum)
# Method: (§1) Absorbent cotton was spread on a 4.5 cm dish, and thereto was added 10 ml of a test solution. Seeds (10 seeds) were added thereto, grown at 23° C. for 4 days in the dark, and thereafter cultured at 23° C. for 3 days in the light (about 3000 lux).
# FIG. 3 is a drawing illustrating the state of germination within each of the dishes similarly to FIG. 1. FIG. 4 is a drawing comparing the length of each embryonic axis (shoot) and that of each root similarly to FIG. 2.
# FIG. 11 is a drawing illustrating the state of seeds within each of the dishes similarly to FIG. 1, and each control is shown. […] In addition, the lengths of each shoot and root are presented.
# (§2) Indole-3-acetate (IAA) was used as the auxin.
# lettuce [1] = system: lettuce
# Method: For control 1, absorbent cotton was spread on a 4.5 cm dish, and thereto was added 10 ml of water. Seeds (10 seeds) were added thereto, grown at 23° C. for 4 days in the dark, and thereafter cultured at 23° C. for 3 days in the light (about 3000 lux).
# radish = system: radish
# Method: as §1
# lettuce [2] = system: lettuce; remark: listed apart in the source
# Method: as §1
# Veronica persica Poir = assay: Germination and seedling growth of Veronica persica Poir with test solution; type: in vivo
# Method: as §1
# FIG. 10 is a drawing illustrating the state of seeds within each of the dishes similarly to FIG. 1, and each control is shown. […] In addition, the lengths of each embryonic axis shoots and root are indicated.
# as §2
# perennial ryegrass = system: perennial ryegrass
# Method: as §1
# FIG. 7 is a drawing illustrating the state of seeds within each of the dishes similarly to FIG. 1. FIG. 8 is a drawing comparing the length of each shoot and that of each root similarly to FIG. 2.
# rice = details: 23° C. 4 days dark + 3 days light
# Method: as §1
# FIG. 1 is a drawing illustrating the state of seeds within each of the dishes. FIG. 2 is a drawing comparing the length of each shoot and the length of each root. […] For reference, the length of the label is 5 mm.
# [3] = volcanic ash+0.1% NaHCO3 (100 g and 0.1% NaHCO3 solution 28 g)
# [4] = volcanic ash+1% NaHCO3 (100 g and 1% NaHCO3 solution 28 g)
# [5] = volcanic ash+10% NaHCO3 (100 g and saturated sodium bicarbonate solution 28 g)
structure (smiles),measurement,setting,value
"O=C([O-])O.[Na+] [NaHCO3, sodium bicarbonate]",germination,tomato; in vivo,germination does not occur
same,length of the shoot,tomato; in vivo,5 mm
same,development of the root,lettuce [1]; [3],21.0±0.8 mm
same,development of the shoot,lettuce [1]; [3],33.4±1.1 mm
same,length of the root,lettuce [1]; [4],5.4±1.1 mm
same,length of the shoot,lettuce [1]; [4],26.0±1.5 mm
same,development of the root,lettuce [1]; [5],0 mm
same,development of the shoot,lettuce [1]; [5],0 mm
same,length of the embryonic axis (shoot),radish; NaHCO3 0.003%,66.3±4.1 mm
same,length of the root,radish; NaHCO3 0.003%,37.0±1.5 mm
same,length of the embryonic axis (shoot),radish; NaHCO3 0.01%,74.0±1.5 mm
same,length of the root,radish; NaHCO3 0.01%,71.3±1.9 mm
same,length of the embryonic axis (shoot),radish; NaHCO3 0.03%,60.0±3.1 mm
same,length of the root,radish; NaHCO3 0.03%,80.7±5.9 mm
same,length of the embryonic axis (shoot),radish; NaHCO3 0.1%,66.7±3.4 mm
same,length of the root,radish; NaHCO3 0.1%,22.0±1.5 mm
same,length of the embryonic axis (shoot),radish; NaHCO3 0.3%,19.3±0.7 mm
same,length of the root,radish; NaHCO3 0.3%,7.3±1.3 mm
same,length of the embryonic axis (shoot),radish; NaHCO3 1%,0±0 mm
same,length of the root,radish; NaHCO3 1%,0±0 mm
same,length of the root,lettuce [2]; NaHCO3 0.003%,18.7±4.7 mm
same,length of the shoot,lettuce [2]; NaHCO3 0.003%,14.0±0.6 mm
same,length of the root,lettuce [2]; NaHCO3 0.01%,21.0±0.6 mm
same,length of the shoot,lettuce [2]; NaHCO3 0.01%,24.3±0.9 mm
same,length of the root,lettuce [2]; NaHCO3 0.03%,14.3±1.9 mm
same,length of the shoot,lettuce [2]; NaHCO3 0.03%,24.3±0.3 mm
same,length of the root,lettuce [2]; NaHCO3 0.1%,11.0±0.6 mm
same,length of the shoot,lettuce [2]; NaHCO3 0.1%,15.7±0.3 mm
same,length of the root,lettuce [2]; NaHCO3 0.3%,3.7±0.3 mm
same,length of the shoot,lettuce [2]; NaHCO3 0.3%,6.7±0.3 mm
same,length of the root,lettuce [2]; NaHCO3 1%,0±0 mm
same,length of the shoot,lettuce [2]; NaHCO3 1%,0±0 mm
same,length of the root,Veronica persica Poir; in vivo,9 mm
same,length of the shoot,Veronica persica Poir; in vivo,8 mm
same,length of the root,perennial ryegrass; NaHCO3 0.003%,25.3±0.9 mm
same,length of the shoot,perennial ryegrass; NaHCO3 0.003%,24.7±0.3 mm
same,length of the root,perennial ryegrass; NaHCO3 0.01%,27.3±1.5 mm
same,length of the shoot,perennial ryegrass; NaHCO3 0.01%,42.0±0.6 mm
same,length of the root,perennial ryegrass; NaHCO3 0.03%,26.0±0.6 mm
same,length of the shoot,perennial ryegrass; NaHCO3 0.03%,44.3±1.5 mm
same,length of the root,perennial ryegrass; NaHCO3 0.1%,28.0±1.5 mm
same,length of the shoot,perennial ryegrass; NaHCO3 0.1%,55.7±0.7 mm
same,length of the root,perennial ryegrass; NaHCO3 0.3%,4.7±0.3 mm
same,length of the shoot,perennial ryegrass; NaHCO3 0.3%,19.0±0.6 mm
same,length of the root,perennial ryegrass; NaHCO3 1%,0±0 mm
same,length of the shoot,perennial ryegrass; NaHCO3 1%,0±0 mm
same,length of the root,rice; NaHCO3 0.003%,32.0±9.3 mm
same,length of the shoot,rice; NaHCO3 0.003%,11.0±1.0 mm
same,length of the root,rice; NaHCO3 0.01%,18.0±9.7 mm
same,length of the shoot,rice; NaHCO3 0.01%,10.0±0 mm
same,length of the root,rice; NaHCO3 0.03%,23.7±0.9 mm
same,length of the shoot,rice; NaHCO3 0.03%,15.0±1.0 mm
same,length of the root,rice; NaHCO3 0.1%,20.7±2.3 mm
same,length of the shoot,rice; NaHCO3 0.1%,13.3±0.9 mm
same,length of the root,rice; NaHCO3 0.3%,2.3±0.3 mm
same,length of the shoot,rice; NaHCO3 0.3%,7.3±1.5 mm
same,length of the root,rice; NaHCO3 1%,0±0 mm
same,length of the shoot,rice; NaHCO3 1%,3.3±0.3 mm
"O=C(O)Cc1c[nH]c2ccccc12 [IAA, indole-3-acetate]",length of the root,"tomato; Example 8, IAA 10^−4 M alone",30 mm
same,length of the shoot,"tomato; Example 8, IAA 10^−4 M alone",20 mm
same,length of the root,"tomato; Example 8, IAA 10^−5 M alone",41 mm
same,length of the shoot,"tomato; Example 8, IAA 10^−5 M alone",23 mm
same,length of the root,"Veronica persica Poir; Example 9, IAA 10^−4 M alone",11 mm
same,length of the shoot,"Veronica persica Poir; Example 9, IAA 10^−4 M alone",8 mm
same,length of the root,"Veronica persica Poir; Example 9, IAA 10^−5 M alone",22 mm
same,length of the shoot,"Veronica persica Poir; Example 9, IAA 10^−5 M alone",13 mm
